Experimental data published in the NIST ThermoML archive (doi:10.1016/j.jct.2015.04.034).
Numbers after ± are expanded uncertainties.

Legend:
[1] = excess molar enthalpy (molar enthalpy of mixing); xn = mol fraction of the nth substance listed; conditions: 101 kPa, Liquid, Flow calorimetry
[2] = 298.15 K; 101.33 kPa; Liquid; Vibrating tube method

`CC1(C)C(=O)[C@]2(C)CC[C@H]1C2` [(-)-fenchone] + CCCO showed an excess molar enthalpy ([1]; 283.15 K, x1 = 0.049) of 0.0459 ± 0.00167 kcal/mol, an excess molar enthalpy ([1]; 283.15 K, x1 = 0.098) of 0.0875 ± 0.00287 kcal/mol and an excess molar enthalpy ([1]; 283.15 K, x1 = 0.193) of 0.154 ± 0.00478 kcal/mol. It also gave an excess molar enthalpy ([1]; 283.15 K, x1 = 0.292) of 0.2 ± 0.00621 kcal/mol, an excess molar enthalpy ([1]; 283.15 K, x1 = 0.397) of 0.232 ± 0.00717 kcal/mol and an excess molar enthalpy ([1]; 283.15 K, x1 = 0.493) of 0.243 ± 0.00741 kcal/mol. The excess molar enthalpy ([1]; 283.15 K, x1 = 0.592) was 0.239 ± 0.00741 kcal/mol, the excess molar enthalpy ([1]; 283.15 K, x1 = 0.691) was 0.218 ± 0.00669 kcal/mol and the excess molar enthalpy ([1]; 283.15 K, x1 = 0.805) was 0.167 ± 0.00526 kcal/mol. For the same compound, the excess molar enthalpy ([1]; 283.15 K, x1 = 0.897) was 0.0975 ± 0.00311 kcal/mol, the excess molar enthalpy ([1]; 283.15 K, x1 = 0.951) was 0.05 ± 0.00191 kcal/mol and the excess molar enthalpy ([1]; 298.15 K, x1 = 0.049) was 0.0526 ± 0.00191 kcal/mol. It also gave an excess molar enthalpy ([1]; 298.15 K, x1 = 0.098) of 0.1 ± 0.00335 kcal/mol, an excess molar enthalpy ([1]; 298.15 K, x1 = 0.193) of 0.175 ± 0.0055 kcal/mol and an excess molar enthalpy ([1]; 298.15 K, x1 = 0.292) of 0.228 ± 0.00717 kcal/mol. The excess molar enthalpy ([1]; 298.15 K, x1 = 0.397) was 0.267 ± 0.00837 kcal/mol, the excess molar enthalpy ([1]; 298.15 K, x1 = 0.493) was 0.28 ± 0.0086 kcal/mol and the excess molar enthalpy ([1]; 298.15 K, x1 = 0.592) was 0.277 ± 0.0086 kcal/mol. It also gave an excess molar enthalpy ([1]; 298.15 K, x1 = 0.691) of 0.251 ± 0.00789 kcal/mol, an excess molar enthalpy ([1]; 298.15 K, x1 = 0.805) of 0.19 ± 0.00598 kcal/mol and an excess molar enthalpy ([1]; 298.15 K, x1 = 0.897) of 0.114 ± 0.00359 kcal/mol. The excess molar enthalpy ([1]; 298.15 K, x1 = 0.951) was 0.0574 ± 0.00215 kcal/mol, the excess molar enthalpy ([1]; 313.15 K, x1 = 0.049) was 0.0578 ± 0.00215 kcal/mol and the excess molar enthalpy ([1]; 313.15 K, x1 = 0.098) was 0.11 ± 0.00359 kcal/mol. For the same compound, the excess molar enthalpy ([1]; 313.15 K, x1 = 0.193) was 0.191 ± 0.00598 kcal/mol, the excess molar enthalpy ([1]; 313.15 K, x1 = 0.292) was 0.251 ± 0.00789 kcal/mol and the excess molar enthalpy ([1]; 313.15 K, x1 = 0.397) was 0.293 ± 0.00908 kcal/mol. It also gave an excess molar enthalpy ([1]; 313.15 K, x1 = 0.493) of 0.309 ± 0.00956 kcal/mol, an excess molar enthalpy ([1]; 313.15 K, x1 = 0.592) of 0.305 ± 0.00932 kcal/mol and an excess molar enthalpy ([1]; 313.15 K, x1 = 0.691) of 0.275 ± 0.0086 kcal/mol. The excess molar enthalpy ([1]; 313.15 K, x1 = 0.805) was 0.206 ± 0.00645 kcal/mol, the excess molar enthalpy ([1]; 313.15 K, x1 = 0.897) was 0.125 ± 0.00406 kcal/mol and the excess molar enthalpy ([1]; 313.15 K, x1 = 0.951) was 0.0626 ± 0.00239 kcal/mol. The excess molar enthalpy ([1]; 328.15 K, x1 = 0.049) was 0.0612 ± 0.00215 kcal/mol, the excess molar enthalpy ([1]; 328.15 K, x1 = 0.098) was 0.117 ± 0.00382 kcal/mol and the excess molar enthalpy ([1]; 328.15 K, x1 = 0.193) was 0.204 ± 0.00645 kcal/mol. The excess molar enthalpy ([1]; 328.15 K, x1 = 0.292) was 0.269 ± 0.00837 kcal/mol, the excess molar enthalpy ([1]; 328.15 K, x1 = 0.397) was 0.315 ± 0.0098 kcal/mol and the excess molar enthalpy ([1]; 328.15 K, x1 = 0.493) was 0.331 ± 0.0103 kcal/mol. It also gave an excess molar enthalpy ([1]; 328.15 K, x1 = 0.592) of 0.326 ± 0.01 kcal/mol, an excess molar enthalpy ([1]; 328.15 K, x1 = 0.691) of 0.293 ± 0.00908 kcal/mol and an excess molar enthalpy ([1]; 328.15 K, x1 = 0.805) of 0.217 ± 0.00669 kcal/mol. For the same compound, the excess molar enthalpy ([1]; 328.15 K, x1 = 0.897) was 0.131 ± 0.0043 kcal/mol and the excess molar enthalpy ([1]; 328.15 K, x1 = 0.951) was 0.0657 ± 0.00239 kcal/mol.
With `CC1(C)C(=O)[C@]2(C)CC[C@H]1C2` [(-)-fenchone] + CC(C)O the excess molar enthalpy ([1]; 283.15 K, x1 = 0.049) was 0.0619 ± 0.00239 kcal/mol, the excess molar enthalpy ([1]; 283.15 K, x1 = 0.097) was 0.117 ± 0.00382 kcal/mol and the excess molar enthalpy ([1]; 283.15 K, x1 = 0.192) was 0.204 ± 0.00645 kcal/mol. For the same compound, the excess molar enthalpy ([1]; 283.15 K, x1 = 0.292) was 0.26 ± 0.00813 kcal/mol, the excess molar enthalpy ([1]; 283.15 K, x1 = 0.392) was 0.292 ± 0.00908 kcal/mol and the excess molar enthalpy ([1]; 283.15 K, x1 = 0.499) was 0.302 ± 0.00932 kcal/mol. It also gave an excess molar enthalpy ([1]; 283.15 K, x1 = 0.598) of 0.294 ± 0.00908 kcal/mol, an excess molar enthalpy ([1]; 283.15 K, x1 = 0.697) of 0.263 ± 0.00813 kcal/mol and an excess molar enthalpy ([1]; 283.15 K, x1 = 0.792) of 0.212 ± 0.00669 kcal/mol. It also gave an excess molar enthalpy ([1]; 283.15 K, x1 = 0.899) of 0.116 ± 0.00382 kcal/mol, an excess molar enthalpy ([1]; 283.15 K, x1 = 0.947) of 0.066 ± 0.00239 kcal/mol and an excess molar enthalpy ([1]; 298.15 K, x1 = 0.049) of 0.0681 ± 0.00239 kcal/mol. For the same compound, the excess molar enthalpy ([1]; 298.15 K, x1 = 0.097) was 0.13 ± 0.00406 kcal/mol, the excess molar enthalpy ([1]; 298.15 K, x1 = 0.192) was 0.222 ± 0.00693 kcal/mol and the excess molar enthalpy ([1]; 298.15 K, x1 = 0.292) was 0.287 ± 0.00884 kcal/mol. It also gave an excess molar enthalpy ([1]; 298.15 K, x1 = 0.392) of 0.326 ± 0.01 kcal/mol, an excess molar enthalpy ([1]; 298.15 K, x1 = 0.499) of 0.338 ± 0.0105 kcal/mol and an excess molar enthalpy ([1]; 298.15 K, x1 = 0.598) of 0.328 ± 0.0103 kcal/mol. It also gave an excess molar enthalpy ([1]; 298.15 K, x1 = 0.697) of 0.294 ± 0.00908 kcal/mol, an excess molar enthalpy ([1]; 298.15 K, x1 = 0.792) of 0.234 ± 0.00741 kcal/mol and an excess molar enthalpy ([1]; 298.15 K, x1 = 0.899) of 0.13 ± 0.0043 kcal/mol. For the same compound, the excess molar enthalpy ([1]; 298.15 K, x1 = 0.947) was 0.0743 ± 0.00263 kcal/mol, the excess molar enthalpy ([1]; 313.15 K, x1 = 0.049) was 0.0727 ± 0.00263 kcal/mol and the excess molar enthalpy ([1]; 313.15 K, x1 = 0.097) was 0.138 ± 0.00454 kcal/mol. The excess molar enthalpy ([1]; 313.15 K, x1 = 0.192) was 0.235 ± 0.00741 kcal/mol, the excess molar enthalpy ([1]; 313.15 K, x1 = 0.292) was 0.306 ± 0.00956 kcal/mol and the excess molar enthalpy ([1]; 313.15 K, x1 = 0.392) was 0.349 ± 0.0108 kcal/mol. For the same compound, the excess molar enthalpy ([1]; 313.15 K, x1 = 0.499) was 0.364 ± 0.0112 kcal/mol, the excess molar enthalpy ([1]; 313.15 K, x1 = 0.598) was 0.354 ± 0.011 kcal/mol and the excess molar enthalpy ([1]; 313.15 K, x1 = 0.697) was 0.316 ± 0.0098 kcal/mol. It also gave an excess molar enthalpy ([1]; 313.15 K, x1 = 0.792) of 0.251 ± 0.00789 kcal/mol, an excess molar enthalpy ([1]; 313.15 K, x1 = 0.899) of 0.141 ± 0.00454 kcal/mol and an excess molar enthalpy ([1]; 313.15 K, x1 = 0.947) of 0.0796 ± 0.00287 kcal/mol. For the same compound, the excess molar enthalpy ([1]; 328.15 K, x1 = 0.049) was 0.0739 ± 0.00263 kcal/mol, the excess molar enthalpy ([1]; 328.15 K, x1 = 0.097) was 0.14 ± 0.00454 kcal/mol and the excess molar enthalpy ([1]; 328.15 K, x1 = 0.192) was 0.241 ± 0.00741 kcal/mol. It also gave an excess molar enthalpy ([1]; 328.15 K, x1 = 0.292) of 0.316 ± 0.0098 kcal/mol, an excess molar enthalpy ([1]; 328.15 K, x1 = 0.392) of 0.362 ± 0.0112 kcal/mol and an excess molar enthalpy ([1]; 328.15 K, x1 = 0.499) of 0.378 ± 0.0117 kcal/mol. For the same compound, the excess molar enthalpy ([1]; 328.15 K, x1 = 0.598) was 0.367 ± 0.0115 kcal/mol, the excess molar enthalpy ([1]; 328.15 K, x1 = 0.697) was 0.326 ± 0.01 kcal/mol and the excess molar enthalpy ([1]; 328.15 K, x1 = 0.792) was 0.257 ± 0.00813 kcal/mol. The excess molar enthalpy ([1]; 328.15 K, x1 = 0.899) was 0.144 ± 0.00454 kcal/mol and the excess molar enthalpy ([1]; 328.15 K, x1 = 0.947) was 0.0817 ± 0.00287 kcal/mol.
`CC1(C)C(=O)[C@]2(C)CC[C@H]1C2` [(-)-fenchone] showed a mass density [2] of 940.67 ± 0.14 kg/m3.
For `CCCO` [propan-1-ol], the mass density [2] was 799.56 ± 0.14 kg/m3.
`CC(C)O` [propan-2-ol] showed a mass density [2] of 781.2 ± 0.15 kg/m3.
